In this assay the test system is beet armyworm eggs. In words: beet armyworm egg bioassay of separated, semipurified dunaimycins (96-well artificial diet). The assay is classed as in vivo, beet armyworm (Spodoptera exigua). How it is done:
The separated, identified dunaimycins were then tested for bioactivity against beet armyworm eggs as follows. Stock solutions were provided as 15% aqueous ethanol solution of various semipurified dunaimycins, either alone or in combinations. For reference purposes, Javelin WDG (Bacillus thuringiensis subspecies Kurstaki; ThermoTrilogy Inc) was weighed out and diluted to give a 1,000 ppm stock solution (positive chemical standard). These stock solutions were transferred to a deep well microtitre plate: 1.4 ml of each stock solutions were placed in the 2 ml well across the top row (A wells 1-12). A Packard Multiprobe II liquid handling system (Perkin Elmer Inc.) then carried out a dilution program, first adding 700 μls of DI H2O to the remaining 84 wells (B-H 1-12). The four tip arm then performed a sequence of aspiration and dispensing steps to mix the samples and then transferred them into an adjoining well to give eight 50% serially diluted samples containing 700 μl per well. The robot then used a transfer program to pipette all of the serial diluted samples to labeled 96 well plates. Aliquots containing 40 μl of each dilution were dispensed into six wells across a microtitre plate containing ˜200 μl of artificial diet/well. […] Mortality was recorded as the number dead over the number treated and expressed as control corrected percent mortality. […]

Regarding `CCC(O)CC1OC2(CCC1C)CC1OC(=O)/C=C\C(C)C(O)C(C)C(O)CC(O)C(C)CCCCC/C=C/C(CC(C)C)C(=O)CC(O2)C1C` (centres unmarked) [Dunaimycin A1], for the setting “Tested alone”, the “LD50 (ppm) BAW assay” value is reported as “Inactive up to 1000 ppm”. In addition, the “insecticidal activity (active or inactive dunaimycin)” value (classification of purified species, inactive up to about 1000 ppm) was “Inactive”.

(Values after patent US8541216B2 (priority 2009, dated 2013).)
